The numbers were not newly measured in patent US20260232685A1, “TRANSDERMAL PERMEATION ENHANCING COMPOSITION AND APPLICATION THEREOF IN TIMOLOL PREPARATION” (WUHAN CONFORM PHARMACEUTICAL CO., LTD., priority 2019, published 2026), which cites them from elsewhere.

Molecules are shown by their SMILES.

For the data set the following is noted: absorbed by the gastrointestinal tract; J. Pharm. Pharmacol., 1978, 30, 53.

As for `CC(C)(C)NC[C@H](O)COc1nsnc1N1CCOCC1` [timolol], the “Hepatic first-pass effect and metabolism at other sites, share of the total dose” value was “about 34%”.
